Where two headings read alike, the source gives them in different places.
Tests used:
[1] = tested on: EMT6 tumor (spontaneous mammary carcinoma of mice); assay: Scintillation imaging (specificity), BALB mice; type: in vivo, mouse
From the text: The mice bearing grafted tumors are anesthetized by the i.p. injection of sodium pentobarbital 1/5 and immobilized under a scintillation camera (Gammatome II, CGR) equipped with a pinhole 3-360 collimator, sensitivity 3.2 10^-4.

[2] = Tissue distribution in Swiss nu/nu SSCUP mice bearing Beu; type: in vivo, human; conditions: mouse, iv, 3 umol/animal
Method: The study of the tissue distribution of the ^125 I labelled compounds was performed in mice bearing grafted melanomas (cf. autoradiograms above). […] The animals are sacrificed at different time intervals of 1 to 24 hours after the injection. The blood is collected and the principal organs are excised. Aliquots are weighed and the radioactivity of the samples is measured in a […] 1191 counter (analytic tracer). The counting yield for iodine 125 is 60%. The results are expressed: as a percentage of the injected dose bound per g of tissue (% ID/g); in the form of the ratios [formula] This ratio reflects more precisely the selectivity of a molecule for an organ (tables 2, 4, 6, 8, 10 and 12).

[3] = intestine, read-out: intestine % ID/g
[4] = kidney, read-out: kidney % ID/g
[5] = muscle, read-out: muscle % ID/g
[6] = pancreas, read-out: pancreas % ID/g
[7] = plasma, read-out: plasma % ID/g
[8] = spleen, read-out: spleen % ID/g
[9] = stomach, read-out: stomach % ID/g
[10] = submaxillary glands, read-out: submaxillary glands % ID/g

CCN(CC)CCNC(=O)c1ccc(I)cc1 [Derivative A, N-(2-diethylaminoethyl) 4-iodo benzamide]
tumor image ([1]; ^123 I label): absence of images | tumor image ([1]; after injection of A): not obtained any image | tissue uptake at 1 h ([2]; blood, read-out: blood % ID/g): 0.87 %ID/g | tissue uptake at 2 h ([2]; blood, read-out: blood % ID/g): 0.53 %ID/g | tissue uptake at 4 h ([2]; blood, read-out: blood % ID/g): 0.32 %ID/g | tissue uptake at 6 h ([2]; blood, read-out: blood % ID/g): 0.13 %ID/g | tissue uptake at 24 h ([2]; blood, read-out: blood % ID/g): 0.01 %ID/g | tissue uptake at 8 h ([2]; blood, 8 h, read-out: blood % ID/g): 0.05 %ID/g | tissue uptake at 12 h ([2]; blood, read-out: blood % ID/g): 0.02 %ID/g | tissue uptake at 1 h ([2]; brain, read-out: brain % ID/g): 1.66 %ID/g | tissue uptake at 2 h ([2]; brain, read-out: brain % ID/g): 1.13 %ID/g | tissue uptake at 4 h ([2]; brain, read-out: brain % ID/g): 0.78 %ID/g | tissue uptake at 6 h ([2]; brain, read-out: brain % ID/g): 0.28 %ID/g | tissue uptake at 24 h ([2]; brain, read-out: brain % ID/g): 0.006 %ID/g | tissue uptake at 8 h ([2]; brain, 8 h, read-out: brain % ID/g): 0.13 %ID/g | tissue uptake at 12 h ([2]; brain, read-out: brain % ID/g): 0.01 %ID/g | tissue uptake at 1 h ([2]; eye, read-out: eye % ID/g): 0.64 %ID/g | tissue uptake at 2 h ([2]; eye, read-out: eye % ID/g): 0.56 %ID/g | tissue uptake at 4 h ([2]; eye, read-out: eye % ID/g): 0.34 %ID/g | tissue uptake at 6 h ([2]; eye, read-out: eye % ID/g): 0.13 %ID/g | tissue uptake at 24 h ([2]; eye, read-out: eye % ID/g): 0.03 %ID/g | tissue uptake at 8 h ([2]; eye, 8 h, read-out: eye % ID/g): 0.07 %ID/g | tissue uptake at 12 h ([2]; eye, read-out: eye % ID/g): 0.03 %ID/g | tissue uptake at 1 h [2, 3]: 3.76 %ID/g | tissue uptake at 2 h [2, 3]: 2.35 %ID/g | tissue uptake at 4 h [2, 3]: 1.56 %ID/g | tissue uptake at 6 h [2, 3]: 0.52 %ID/g | tissue uptake at 8 h ([2]; intestine, 8 h, read-out: intestine % ID/g): 0.15 %ID/g | tissue uptake at 12 h [2, 3]: 0.08 %ID/g | tissue uptake at 24 h [2, 3]: 0.03 %ID/g | tissue uptake at 1 h [2, 4]: 7.63 %ID/g | tissue uptake at 2 h [2, 4]: 5.9 %ID/g | tissue uptake at 4 h [2, 4]: 4.28 %ID/g | tissue uptake at 6 h [2, 4]: 0.99 %ID/g | tissue uptake at 24 h [2, 4]: 0.06 %ID/g | tissue uptake at 8 h ([2]; kidney, 8 h, read-out: kidney % ID/g): 0.28 %ID/g | tissue uptake at 12 h [2, 4]: 0.1 %ID/g | tissue uptake at 1 h ([2]; liver, read-out: liver % ID/g): 5.27 %ID/g | tissue uptake at 2 h ([2]; liver, read-out: liver % ID/g): 3.5 %ID/g | tissue uptake at 4 h ([2]; liver, read-out: liver % ID/g): 2.28 %ID/g | tissue uptake at 6 h ([2]; liver, read-out: liver % ID/g): 0.94 %ID/g | tissue uptake at 24 h ([2]; liver, read-out: liver % ID/g): 0.13 %ID/g | tissue uptake at 8 h ([2]; liver, 8 h, read-out: liver % ID/g): 0.52 %ID/g | tissue uptake at 12 h ([2]; liver, read-out: liver % ID/g): 0.28 %ID/g | tissue uptake at 1 h ([2]; lungs, read-out: lungs % ID/g): 7.77 %ID/g | tissue uptake at 2 h ([2]; lungs, read-out: lungs % ID/g): 4.71 %ID/g | tissue uptake at 4 h ([2]; lungs, read-out: lungs % ID/g): 3.6 %ID/g | tissue uptake at 6 h ([2]; lungs, read-out: lungs % ID/g): 1.25 %ID/g | tissue uptake at 8 h ([2]; lungs, 8 h, read-out: lungs % ID/g): 0.35 %ID/g | tissue uptake at 12 h ([2]; lungs, read-out: lungs % ID/g): 0.08 %ID/g | tissue uptake at 24 h ([2]; lungs, read-out: lungs % ID/g): 0.05 %ID/g | tissue uptake at 1 h [2, 5]: 1.3 %ID/g | tissue uptake at 2 h [2, 5]: 0.93 %ID/g | tissue uptake at 4 h [2, 5]: 0.51 %ID/g | tissue uptake at 6 h [2, 5]: 0.33 %ID/g | tissue uptake at 24 h [2, 5]: 0.01 %ID/g | tissue uptake at 8 h ([2]; muscle, 8 h, read-out: muscle % ID/g): 0.08 %ID/g | tissue uptake at 12 h [2, 5]: 0.01 %ID/g | tissue uptake at 1 h [2, 6]: 3.99 %ID/g | tissue uptake at 2 h [2, 6]: 2.28 %ID/g | tissue uptake at 4 h [2, 6]: 1.39 %ID/g | tissue uptake at 6 h [2, 6]: 0.36 %ID/g | tissue uptake at 8 h ([2]; pancreas, 8 h, read-out: pancreas % ID/g): 0.12 %ID/g | tissue uptake at 12 h [2, 6]: 0.06 %ID/g | tissue uptake at 24 h [2, 6]: 0.05 %ID/g | tissue uptake at 1 h [2, 7]: 0.46 %ID/g | tissue uptake at 2 h [2, 7]: 0.35 %ID/g | tissue uptake at 4 h [2, 7]: 0.2 %ID/g | tissue uptake at 6 h [2, 7]: 0.12 %ID/g | tissue uptake at 24 h [2, 7]: 0.01 %ID/g | tissue uptake at 8 h ([2]; plasma, 8 h, read-out: plasma % ID/g): 0.04 %ID/g | tissue uptake at 12 h [2, 7]: 0.02 %ID/g | tissue uptake at 1 h [2, 8]: 4.11 %ID/g | tissue uptake at 2 h [2, 8]: 2.12 %ID/g | tissue uptake at 4 h [2, 8]: 1.07 %ID/g | tissue uptake at 6 h [2, 8]: 0.28 %ID/g | tissue uptake at 8 h ([2]; spleen, 8 h, read-out: spleen % ID/g): 0.11 %ID/g | tissue uptake at 12 h [2, 8]: 0.04 %ID/g | tissue uptake at 24 h [2, 8]: 0.02 %ID/g | tissue uptake at 1 h [2, 9]: 2.49 %ID/g | tissue uptake at 2 h [2, 9]: 1.51 %ID/g | tissue uptake at 4 h [2, 9]: 1.16 %ID/g | tissue uptake at 6 h [2, 9]: 0.49 %ID/g | tissue uptake at 8 h ([2]; stomach, 8 h, read-out: stomach % ID/g): 0.22 %ID/g | tissue uptake at 12 h [2, 9]: 0.07 %ID/g | tissue uptake at 24 h [2, 9]: 0.04 %ID/g | tissue uptake at 1 h [2, 10]: 5.11 %ID/g | tissue uptake at 2 h [2, 10]: 2.9 %ID/g | tissue uptake at 4 h [2, 10]: 1.71 %ID/g | tissue uptake at 6 h [2, 10]: 0.95 %ID/g | tissue uptake at 8 h ([2]; submaxillary glands, 8 h, read-out: submaxillary glands % ID/g): 0.24 %ID/g | tissue uptake at 12 h [2, 10]: 0.04 %ID/g | tissue uptake at 24 h [2, 10]: 0.03 %ID/g | tissue uptake at 1 h ([2]; tumor, read-out: tumor % ID/g): 3.51 %ID/g | tissue uptake at 2 h ([2]; tumor, read-out: tumor % ID/g): 3.17 %ID/g | tissue uptake at 4 h ([2]; tumor, read-out: tumor % ID/g): 3.25 %ID/g | tissue uptake at 6 h ([2]; tumor, read-out: tumor % ID/g): 1.96 %ID/g | tissue uptake at 24 h ([2]; tumor, read-out: tumor % ID/g): 0.07 %ID/g | tissue uptake at 8 h ([2]; tumor, up to 8 hours, Beu, read-out: intratumoral concentration): > 1 %ID/g | tissue uptake at 8 h ([2]; tumor, 8 h, read-out: tumor % ID/g): 1.07 %ID/g | tissue uptake at 12 h ([2]; tumor, read-out: tumor % ID/g): 0.36 %ID/g

— US5190741A, “Agents for diagnosing and treating melanomas, aromatic halogenated derivatives usable as such agents and their preparation” (Institut National de la Sante et de la Recherche Medicale …, priority 1989, dated 1993)
